Experimental data published in ChEMBL document CHEMBL5537195, “Novel Covalent Probe Selectively Targeting Glutathione Peroxidase 4 In Vivo: Potential Applications in Pancreatic Cancer Therapy” (J Med Chem, 2024).
Activity calls are given as the source filed them. The rule behind the calls is not given here.

Experiments:
HPAF-II = experiment: Antiproliferative activity against human HPAF-II cells assessed as inhibition of cell growth incubated for 72 hrs by CCK-8 assay; format: functional, cell-based
[1] = biological target: T1, Phospholipid hydroperoxide glutathione peroxidase GPX4 (Homo sapiens) (UniProt P36969); experiment: Binding affinity to GPX4 in human ASPC1 cells at 0.2 uM incubated for 1 hr by immunofluorescence based confocal microscopic analysis; format: cell-based
T1 sequence (whole entry): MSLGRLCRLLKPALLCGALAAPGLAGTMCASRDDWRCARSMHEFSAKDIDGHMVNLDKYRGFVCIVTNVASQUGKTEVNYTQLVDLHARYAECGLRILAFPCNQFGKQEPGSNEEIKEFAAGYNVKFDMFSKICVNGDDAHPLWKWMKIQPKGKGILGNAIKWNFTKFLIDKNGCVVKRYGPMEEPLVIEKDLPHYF

ASPC1 [2] = experiment: Induction of ferroptosis in human ASPC1 cells assessed as reduction in cell viability incubated for 24 hrs by CCK-8 assay; format: functional, cell-based; settings: ASPC1, 24 h
ASPC1 [3] = experiment: Induction of ferroptosis in human ASPC1 cells assessed as effect on ROS level at 1 uM incubated for 3 hrs in absence of […]; format: functional, cell-based
MIA PaCa-2 = experiment: Antiproliferative activity against human MIA PaCa-2 cells assessed as inhibition of cell growth incubated for 72 hrs by CCK-8 assay; format: functional, cell-based; settings: MIA PaCa-2, 72 h
[4] = biological target: T1, Phospholipid hydroperoxide glutathione peroxidase GPX4 (Homo sapiens); experiment: Binding affinity to GPX4 in human Hs766T cells at 0.2 uM incubated for 1 hr by SDS-PAGE analysis; format: cell-based
[5] = biological target: T1, Phospholipid hydroperoxide glutathione peroxidase GPX4 (Homo sapiens); experiment: Competitive binding affinity to GPX4 in human ASPC1 cells at 0.2 uM incubated for 1 hr in presence of ML162 by immunofluorescence based confocal microscopic analysis; format: cell-based
[6] = biological target: T1, Phospholipid hydroperoxide glutathione peroxidase GPX4 (Homo sapiens); experiment: Binding affinity to GPX4 in human HPAC cells at 0.2 uM incubated for 1 hr by SDS-PAGE analysis; format: cell-based
[7] = Cmax in Sprague-Dawley rat at 2 mg/kg, iv measured upto 48 hrs by LC-MS/MS analysis; format: ADME, organism-based; settings: in vivo
Mus musculus = experiment: In vivo target engagement at GPX4 in SCID mouse at 10 mg/kg, ip qd administered for 14 days and measured after 2 hrs by pull-down based Western blot analysis; format: functional, organism-based; settings: time 14.0 day
[8] = biological target: T1, Phospholipid hydroperoxide glutathione peroxidase GPX4 (Homo sapiens); experiment: Competitive binding affinity to GPX4 in human ASPC1 cells at 0.2 uM incubated for 1 hr in presence of ML210 by immunofluorescence based confocal microscopic analysis; format: cell-based
SW1990 = experiment: Antiproliferative activity against human SW1990 cells assessed as inhibition of cell growth incubated for 72 hrs by CCK-8 assay; format: functional, cell-based; settings: SW1990, 72 h
[9] = biological target: T1, Phospholipid hydroperoxide glutathione peroxidase GPX4 (Homo sapiens); experiment: Binding affinity to GPX4 in human CFPAC-1 cells at 0.2 uM incubated for 1 hr by SDS-PAGE analysis; format: cell-based
[10] = biological target: T1, Phospholipid hydroperoxide glutathione peroxidase GPX4 (Homo sapiens); experiment: Binding affinity to GPX4 in human ASPC1 cells incubated for 1 hr by imaging analysis; format: cell-based; settings: dose 0.2-5 µM
ASPC1 [11] = experiment: Induction of ferroptosis in human ASPC1 cells with siRNA mediated GPX4 knockdown assessed as reduction in cell viability incubated for 72 hrs by CCK-8 assay; format: functional, cell-based
PANC-1 = experiment: Antiproliferative activity against human PANC-1 cells assessed as inhibition of cell growth incubated for 72 hrs by CCK-8 assay; format: functional, cell-based; settings: PANC-1, 72 h
ASPC1 [12] = experiment: Antitumor activity against human ASPC1 cells xenografted in NOD-SCID mouse assessed as tumor growth inhibition at 10 mg/kg, ip administered for 14 days; format: functional; settings: ASPC1, 336 h, time 14 day, read-out: TGI
[13] = biological target: T1, Phospholipid hydroperoxide glutathione peroxidase GPX4 (Homo sapiens); experiment: Binding affinity to GPX4 in human ASPC1 cells at 0.2 uM incubated for 1 hr in presence of 4-(((4-(benzo[d]thiazol-2-yl)phenyl)(methyl)amino)methyl)-N-ethynyl-N-methylbenzenesulfonamide by SDS-PAGE analysis; format: cell-based
HCT-116 = experiment: Induction of ferroptosis in human HCT-116 cells assessed as reduction in cell viability incubated for 72 hrs by CCK-8 assay; format: functional, cell-based; settings: HCT-116, 72 h
[14] = biological target: T1, Phospholipid hydroperoxide glutathione peroxidase GPX4 (Homo sapiens); experiment: Binding affinity to GPX4 in human Panc1005 cells at 0.2 uM incubated for 1 hr by SDS-PAGE analysis; format: cell-based
ASPC1 [15] = experiment: Induction of ferroptosis in human ASPC1 cells assessed as reduction in cell viability incubated for 48 hrs followed by compound washout by CCK-8 assay; format: functional, cell-based; settings: ASPC1, 48 h
ASPC1 [16] = experiment: Induction of ferroptosis in human ASPC1 cells assessed as reduction in cell viability incubated for 24 hrs followed by compound washout by CCK-8 assay; format: functional, cell-based; settings: ASPC1, 24 h
[17] = biological target: T1, Phospholipid hydroperoxide glutathione peroxidase GPX4 (Homo sapiens); experiment: Competitive binding affinity to GPX4 (unknown origin) at 0.2 uM incubated for 5 hrs in presence of 4-(((4-(benzo[d]thiazol-2-yl)phenyl)(methyl)amino)methyl)-N-ethynyl-N-methylbenzenesulfonamide by pull-down based Western blot analysis
[18] = biological target: T1, Phospholipid hydroperoxide glutathione peroxidase GPX4 (Homo sapiens); experiment: Competitive binding affinity to GPX4 in human ASPC1 cells at 0.2 uM incubated for 1 hr in presence of 4-(((4-(benzo[d]thiazol-2-yl)phenyl)(methyl)amino)methyl)-N-ethynyl-N-methylbenzenesulfonamide; format: cell-based
ASPC1 [19] = experiment: Induction of ferroptosis in human ASPC1 cells assessed as reduction in cell viability incubated for 72 hrs by CCK-8 assay; format: functional, cell-based; settings: ASPC1, 72 h
ASPC1 [20] = experiment: Induction of apoptosis in human ASPC1 cells at 20 to 200 nM incubated for 48 hrs by FITC based flow cytometry analysis; format: functional, cell-based; settings: dose 20-200 nM
[21] = Half life in Sprague-Dawley rat at 2 mg/kg, iv measured upto 48 hrs by LC-MS/MS analysis; format: ADME, organism-based; settings: in vivo
Capan-2 = experiment: Antiproliferative activity against human Capan-2 cells assessed as inhibition of cell growth incubated for 72 hrs by CCK-8 assay; format: functional, cell-based
[22] = biological target: T1, Phospholipid hydroperoxide glutathione peroxidase GPX4 (Homo sapiens); experiment: Binding affinity to GPX4 in human SW1990 cells at 0.2 uM incubated for 1 hr by SDS-PAGE analysis; format: cell-based
[23] = biological target: T1, Phospholipid hydroperoxide glutathione peroxidase GPX4 (Homo sapiens); experiment: Binding affinity to GPX4 in human ASPC1 cells at 0.2 uM incubated for 12 hr followed by compound washout by SDS-PAGE analysis; format: cell-based
[24] = biological target: T2, Phosphoglycerate kinase 1 (Homo sapiens) (UniProt P00558); experiment: Binding affinity to PGK1 in human ASPC1 cells at 1 uM incubated for 5 hrs by Western blot analysis; format: cell-based
T2 sequence (whole entry): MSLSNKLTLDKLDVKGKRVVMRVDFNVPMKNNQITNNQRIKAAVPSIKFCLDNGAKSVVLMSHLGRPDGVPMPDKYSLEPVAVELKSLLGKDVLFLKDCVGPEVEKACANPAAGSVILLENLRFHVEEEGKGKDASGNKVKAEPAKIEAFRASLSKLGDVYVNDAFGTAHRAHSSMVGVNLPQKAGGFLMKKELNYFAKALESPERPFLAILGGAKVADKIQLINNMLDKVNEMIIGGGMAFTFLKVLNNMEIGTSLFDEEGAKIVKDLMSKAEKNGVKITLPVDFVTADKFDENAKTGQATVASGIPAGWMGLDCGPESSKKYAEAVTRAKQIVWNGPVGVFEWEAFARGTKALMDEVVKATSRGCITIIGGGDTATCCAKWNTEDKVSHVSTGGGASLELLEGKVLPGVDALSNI

For `C#CCN(Cc1ccc(S(=O)(=O)N(C)C#C)cc1)c1ccc(-c2nc3ccccc3s2)cc1`, the IC50 (HPAF-II) was 20 nM, the Activity [1] was “Active” and the IC50 (ASPC1 [2]) was 37 nM. For the same compound, the Activity (ASPC1 [3]) was “Active”, the IC50 (MIA PaCa-2) was 20 nM and the Activity [4] was “Active”. For the same compound, the Activity [5] was “inactive”, the Activity [6] was “Active” and the Cmax [7] was 2250 ng/mL. The Activity (Mus musculus) was “Active”, the Activity [8] was “inactive” and the IC50 (SW1990) was 20 nM. The Activity [9] was “Active”, the Activity [10] was “Dose-Dependent Effect” and the Activity (ASPC1 [11]) was “Active”. For the same compound, the IC50 (PANC-1) was 20 nM, the inhibition in vivo at 10 mg/kg (ASPC1 [12]) was 28% and the Activity [13] was “Active”. For the same compound, the IC50 (HCT-116) was over 10000 nM, the Activity [14] was “Active” and the IC50 (ASPC1 [15]) was 33 nM. The IC50 (ASPC1 [16]) was 62 nM, the Activity [17] was “Active” and the Activity [18] was “Active”. For the same compound, the IC50 (ASPC1 [19]) was 14 nM, the Activity (ASPC1 [20]) was “inactive” and the half-life [21] was 2.55 h. The Activity (Capan-2) was “inactive”, the Activity [22] was “Active” and the Activity [23] was “Active”. The Activity [24] was “Active”.
